Laboratory results published in US7229987B2, “Multicyclic compounds for use as melanin concentrating hormone antagonists in the treatment of obesity and diabetes” (Eli Lilly and Company, priority 2002, dated 2007).
Structures can show the parent of a compound that is named as a salt.

SMILES	melting point [°C]
CN(C)CCCOc1ccc(-c2nnc(CCc3ccc4ccccc4c3)o2)cc1 (as salt: hydrochloride) [Example 205, Dimethyl-{3-[4-(5-naphthalene-2-ylethyl-[1,3,4]oxadiazol-2-yl)phenoxy]propyl}amine]	208 to 210
c1csc(SCc2nnc(-c3ccc(OCCCN4CCCCC4)cc3)o2)n1 (as salt: hydrochloride) [Example 226, 1-(3-{4-[5-(thiazol-2-ylsulfanylmethyl)-[1,3,4]oxadiazol-2-yl]phenoxy}propyl)piperdine]	174 to 176
COCCSCc1nnc(-c2ccc(OCCCN(C)C)cc2)o1 (as salt: maleate) [Example 281, (3-{4-[5-(2-methoxy-ethylsulfanylmethyl)-[1,3,4]oxadiazol-2-yl]-phenoxy}-propyl)-dimethyl-amine]	97.5 to 99
CN(C)CCCOc1ccc(-c2nnc(CSCCOCc3ccccc3)o2)cc1 (as salt: maleate) [Example 282, (3-{4-[5-(2-phenylmethoxy-ethylsulfanylmethyl)-[1,3,4]oxadiazol-2-yl]-phenoxy}-propyl)-dimethyl-amine]	71.5 to 72
CN(C)CCCOc1ccc(-c2nnc(CCOCCOc3ccccc3)o2)cc1 (as salt: oxalate) [Example 215, Dimethyl-[3-(4-{5-[2-(2-phenxoyethoxy)ethyl]-[1,3,4]oxadiazol-2-yl}phenoxy)propyl]amine]	116 to 118
CN(C)CCCNC(=O)c1ccc(-c2nnc(CSCCOc3ccc(Cl)cc3Cl)o2)cc1 [Example 44, 4-{5-[2-(2,4-dichlorophenoxy)-ethylsulfanylmethyl]-[1,3,4]-oxadiazol-2-yl}-N-(3-dimethylaminopropyl)-benzamide]	140 to 141
CN(C)CCCNC(=O)c1ccc(-c2nnc(CSCCCOc3ccccc3)o2)cc1 [Example 47, N-(3-dimethylaminopropyl)-4-[5-(3-phenoxypropylsulfanylmethyl)-[1,3,4]oxadiazol-2-yl]-benzamide]	77 to 80
CN(C)CCCNC(=O)c1ccc(-c2nnc(CSCCCCOc3ccccc3)o2)cc1 [Example 48, N-(3-dimethylaminopropyl)-4-[5-(4-phenoxybutylsulfanylmethyl)-[1,3,4]oxadiazol-2-yl]-benzamide]	87 to 93
CN(C)CCCOc1ccc(-c2nnc(CSCCCOc3ccccc3)o2)cc1.O=C(O)C(=O)O [Example 49, dimethyl-(3-{4-[5-(3-phenoxypropylsulfanylmethyl)-[1,3,4]oxadiazol-2-yl]-phenoxy}-propyl)-amine, oxalic acid salt]	131 to 133
CN(C)CCCOc1ccc(-c2nnc(CSCCCCOc3ccccc3)o2)cc1 [Example 50, dimethyl-(3-{4-[5-(4-phenoxybutylsulfanylmethyl)-[1,3,4]oxadiazol-2-yl]-phenoxy}-propyl)-amine]	69 to 73
CN(C)CCNC(=O)c1ccc(-c2nnc(CSCCOc3ccccc3)o2)cc1 [Example 54, N-(2-dimethylaminoethyl)-4-[5-(2-phenoxyethylsulfanylmethyl)-[1,3,4]oxadiazol-2-yl]-benzamide]	94 to 100
CN(C)CCCCNC(=O)c1ccc(-c2nnc(CSCCOc3ccccc3)o2)cc1 [Example 55, N-(4-dimethylaminobutyl)-4-[5-(2-phenoxyethylsulfanylmethyl)-[1,3,4]oxadiazol-2-yl]-benzamide]	71 to 78
CN(C)CCCCCNC(=O)c1ccc(-c2nnc(CSCCOc3ccccc3)o2)cc1 [Example 56, N-(5-dimethylaminopentyl)-4-[5-(2-phenoxyethylsulfanylmethyl)-[1,3,4]oxadiazol-2-yl]-benzamide]	83 to 89
CN(C)CCCCCCNC(=O)c1ccc(-c2nnc(CSCCOc3ccccc3)o2)cc1 [Example 57, N-(6-dimethylaminohexyl)-4-[5-(2-phenoxyethylsulfanylmethyl)-[1,3,4]oxadiazol-2-yl]-benzamide]	86 to 93
CN(C)CCCOc1ccc(-c2nnc(-c3ccc(-c4ccccc4)cc3)o2)cc1 [Example 58, {3-[4-(5-biphenyl-4-yl-[1,3,4]oxadiazol-2-yl)-phenoxy]-propyl}-dimethylamine]	130 to 132
CN(C)CCCOc1ccc(-c2nnc(CSCCOc3ccccc3)s2)cc1 [Example 59, Dimethyl-(3-{4-[5-(2-phenoxyethylsulfanylmethyl)-[1,3,4]thiadiazol-2-yl]-phenoxy}-propyl)-amine]	72 to 73
CN(C)CCNC(=O)c1cccc(-c2nnc(CSCCOc3ccccc3)o2)c1 [Example 60, N-(2-Dimethylamino-ethyl)3-[5-(2-phenoxy-ethylsulfanylmethyl)-[1,3,4]oxadiazol-2-yl]-benzamide]	64
CN(C)CCCCNC(=O)c1cccc(-c2nnc(CSCCOc3ccccc3)o2)c1 [Example 61, N-(4-dimethylamino-butyl)-3-[5-(2-phenoxy-ethylsulfanylmethyl)-[1,3,4]oxadiazol-2-yl]-benzamide]	38 to 42
CN(C)CCCNC(=O)c1cccc(-c2nnc(CSCCOc3ccccc3)o2)c1 [Example 62, N-(3-dimethylamino-propyl)-3-[5-(2-phenoxy-ethylsulfanylmethyl)-[1,3,4]oxadiazol-2-yl]-benzamide]	88 to 90

SMILES	melting point [°C]
CN(C)CCCCNC(=O)c1ccccc1-c1nnc(CSCCOc2ccccc2)o1 [Example 63, N-(4-dimethylamino-butyl)-2-[5-(2-phenoxy-ethylsulfanylmethyl)-[1,3,4]oxadiazol-2-yl]-benzamide]	62 to 65
CN(C)CCNC(=O)c1ccccc1-c1nnc(CSCCOc2ccccc2)o1 [Example 64, N-(2-dimethylamino-ethyl)-2-[5-(2-phenoxy-ethylsulfanylmethyl)-[1,3,4]oxadiazol-2-yl]-benzamide]	80 to 85
CN(C)CCCNC(=O)c1ccccc1-c1nnc(CSCCOc2ccccc2)o1 [Example 65, N-(3-dimethylamino-propyl)-2-[5-(2-phenoxy-ethylsulfanylmethyl)-[1,3,4]oxadiazol-2-yl]-benzamide]	60 to 65
CN(C)CCOc1ccc(-c2nnc(CSCCOc3ccccc3)o2)cc1 [Example 66, dimethyl-(2-{4-[5-(2-phenoxy-ethylsulfanylmethyl)-[1,3,4]oxadiazol-2-yl]-phenoxy}-ethyl)-amine]	62 to 64
CN(C)CCCOc1ccc(-c2nnc(CSCCOc3ccccc3)o2)cc1 [Example 67, dimethyl-(3-{4-[5-(2-phenoxy-ethylsulfanylmethyl)-[1,3,4]oxadiazol-2-yl]-phenoxy}-propyl)-amine]	70
CN(C)CCCCOc1ccc(-c2nnc(CSCCOc3ccccc3)o2)cc1 [Example 68, dimethyl-(4-{4-[5-(2-phenoxy-ethylsulfanylmethyl)-[1,3,4]oxadiazol-2-yl]-phenoxy}-butyl)-amine]	62 to 63
CN(C)CCCCCOc1ccc(-c2nnc(CSCCOc3ccccc3)o2)cc1 [Example 69, dimethyl-(5-{4-[5-(2-phenoxy-ethylsulfanylmethyl)-[1,3,4]oxadiazol-2-yl]-phenoxy}-pentyl)-amine]	51 to 54
CN(C)CCCCCCCOc1ccc(-c2nnc(CSCCOc3ccccc3)o2)cc1 [Example 71, dimethyl-(7-{4-[5-(2-phenoxy-ethylsulfanylmethyl)-[1,3,4]oxadiazol-2-yl]-phenoxy}-heptyl)-amine]	39 to 40
c1ccc(OCCSCc2nnc(-c3ccc(OCCN4CCCCC4)cc3)o2)cc1 [Example 72, 1-(2-{4-[5-(2-phenoxy-ethylsulfanylmethyl)-[1,3,4]oxadiazol-2-yl]-phenoxy}-ethyl)-piperidine]	70
CC(C)N(CCOc1ccc(-c2nnc(CSCCOc3ccccc3)o2)cc1)C(C)C [Example 73, diisopropyl-(2-{4-[5-(2-phenoxy-ethylsulfanylmethyl)-[1,3,4]oxadiazol-2-yl]-phenoxy}-ethyl)-amine]	42 to 45
c1ccc(OCCSCc2nnc(-c3ccc(OCCN4CCOCC4)cc3)o2)cc1 [Example 74, 4-(2-{4-[5-(2-phenoxy-ethylsulfanylmethyl)-[1,3,4]oxadiazol-2-yl]-phenoxy}-ethyl)-morpholine]	70 to 72
c1ccc(OCCSCc2nnc(-c3ccc(OCCCN4CCCCC4)cc3)o2)cc1 [Example 75, 1-(3-{4-[5-(2-phenoxy-ethylsulfanylmethyl)-[1,3,4]oxadiazol-2-yl]-phenoxy}-propyl)-piperidine]	65
c1ccc(OCCSCc2nnc(-c3ccc(OCCN4CCCC4)cc3)o2)cc1 [Example 76, 2-(2-phenoxy-ethylsulfanylmethyl)-5-[4-(2-pyrrolidin-1-yl-ethoxy)-phenyl]-[1,3,4]oxadiazole]	65
CNCCCOc1ccc(-c2nnc(CSCCOc3ccccc3)o2)cc1 [Example 77, methyl-(3-{4-[5-(2-phenoxy-ethylsulfanylmethyl)-[1,3,4]oxadiazol-2-yl]-phenoxy}-propyl)-amine]	40 to 44
CCN(CC)CCCOc1ccc(-c2nnc(CSCCOc3ccccc3)o2)cc1 [Example 78, diethyl-(3-{4-[5-(2-phenoxy-ethylsulfanylmethyl)-[1,3,4]oxadiazol-2-yl]-phenoxy}-propyl)-amine]	27 to 31
c1ccc(OCCSCc2nnc(-c3ccc(OCCCCN4CCCC4)cc3)o2)cc1 [Example 80, 2-(2-phenoxy-ethylsulfanylmethyl)-5-[4-(4-pyrrolidin-1-yl-butoxy)-phenyl]-[1,3,4]oxadiazole]	45
c1ccc(OCCSCc2nnc(-c3ccc(OCCCCN4CCCCC4)cc3)o2)cc1 [Example 81, 1-(4-{4-[5-(2-phenoxy-ethylsulfanylmethyl)-[1,3,4]oxadiazol-2-yl]-phenoxy}-butyl)-piperidine]	57 to 62
c1ccc(OCCSCc2nnc(-c3ccc(OCCCN4CCSCC4)cc3)o2)cc1 [Example 82, 4-(3-{4-[5-(2-phenoxy-ethylsulfanylmethyl)-[1,3,4]oxadiazol-2-yl]-phenoxy}-propyl)-thiomorpholine]	85
